Source: ChEMBL document CHEMBL4507269, “Data for DCP probe BAY-386” (2021)

Tests used:
[1] = target: T1, 5-hydroxytryptamine receptor 1A (Homo sapiens) (UniProt P08908); conditions: Compound concentration 10.0 uM
T1 sequence (whole entry): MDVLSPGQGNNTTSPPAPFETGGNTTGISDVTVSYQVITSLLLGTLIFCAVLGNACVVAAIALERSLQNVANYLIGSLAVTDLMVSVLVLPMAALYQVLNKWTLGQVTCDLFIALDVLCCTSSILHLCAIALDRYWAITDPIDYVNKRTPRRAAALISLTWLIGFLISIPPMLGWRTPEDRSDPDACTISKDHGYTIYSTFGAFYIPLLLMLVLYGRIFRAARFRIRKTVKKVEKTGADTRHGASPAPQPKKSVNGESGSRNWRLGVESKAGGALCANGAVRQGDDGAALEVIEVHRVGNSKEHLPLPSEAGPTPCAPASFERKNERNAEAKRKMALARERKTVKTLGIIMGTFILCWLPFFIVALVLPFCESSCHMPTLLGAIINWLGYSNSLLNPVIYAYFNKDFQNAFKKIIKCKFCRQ

[2] = target: Mu-type opioid receptor (Homo sapiens) (UniProt P35372); conditions: Compound concentration 10.0 uM
[3] = target: Beta-2 adrenergic receptor (Homo sapiens) (UniProt P07550); conditions: Compound concentration 10.0 uM
[4] = target: Histamine H1 receptor (Homo sapiens) (UniProt P35367); conditions: Compound concentration 10.0 uM
[5] = target: Sodium-dependent serotonin transporter (Homo sapiens) (UniProt P31645); conditions: Compound concentration 10.0 uM
[6] = target: Endothelin-1 receptor (Homo sapiens) (UniProt P25101); conditions: Compound concentration 10.0 uM
[7] = target: Kappa-type opioid receptor (Homo sapiens) (UniProt P41145); assay: kappa(KOP) (h) Eurofins-Cerep Cellular and Nuclear Receptor Functional Assays; conditions: Compound concentration 10.0 uM
[8] = target: B2 bradykinin receptor (Homo sapiens) (UniProt P30411); assay: Bradykinin B2 Eurofins-Panlabs radioligand binding assay; conditions: Compound concentration 10.0 uM
[9] = target: Muscarinic acetylcholine receptor M3 (Homo sapiens) (UniProt P20309); conditions: Compound concentration 10.0 uM
[10] = species: Rattus norvegicus; assay: Inhibition of Rolipram at 10 µM in the Eurofins-Panlabs radioligand binding assay (Eurofins_assay_268811); format: protein assay; design: ligand concentration 1.8 nM; conditions: Compound concentration 10.0 uM
[11] = species: Rattus norvegicus; assay: Testosterone Eurofins-Panlabs radioligand binding assay; design: ligand concentration 1.5 nM; conditions: Compound concentration 10.0 uM
[12] = target: Voltage-dependent N-type calcium channel subunit alpha-1B (Homo sapiens) (UniProt Q00975); assay: Inhibition of Calcium Channel N-Type at 10 µM in the Eurofins-Panlabs radioligand binding assay (Eurofins_assay_216000); conditions: Rattus norvegicus; Compound concentration 10.0 uM
[13] = target: T2, Adenosine receptor A3 (Homo sapiens) (UniProt P0DMS8); conditions: Compound concentration 10.0 uM
T2 sequence (whole entry): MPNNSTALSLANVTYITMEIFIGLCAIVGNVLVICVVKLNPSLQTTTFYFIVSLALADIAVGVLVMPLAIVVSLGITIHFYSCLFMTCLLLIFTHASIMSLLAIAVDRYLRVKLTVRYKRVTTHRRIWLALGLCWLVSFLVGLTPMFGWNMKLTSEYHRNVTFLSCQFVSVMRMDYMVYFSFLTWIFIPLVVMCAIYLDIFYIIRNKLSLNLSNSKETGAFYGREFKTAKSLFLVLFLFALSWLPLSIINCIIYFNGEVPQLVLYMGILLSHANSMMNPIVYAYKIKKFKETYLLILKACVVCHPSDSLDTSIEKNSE

[14] = species: Rattus norvegicus; assay: Inhibition of Imidazoline I2, Central at 10 µM in the Eurofins-Panlabs radioligand binding assay (Eurofins_assay_241000); design: ligand concentration 2 nM; conditions: Compound concentration 10.0 uM
[15] = species: Oryctolagus cuniculus; assay: Inhibition of Purinergic P2X at 10 µM in the Eurofins-Panlabs radioligand binding assay (Eurofins_assay_268700); format: protein assay; conditions: Compound concentration 10.0 uM
[16] = target: 5-hydroxytryptamine receptor 3A (Homo sapiens) (UniProt P46098); conditions: Compound concentration 10.0 uM
[17] = target: T3, Muscarinic acetylcholine receptor M4 (Homo sapiens) (UniProt P08173); conditions: Compound concentration 10.0 uM
T3 sequence (whole entry): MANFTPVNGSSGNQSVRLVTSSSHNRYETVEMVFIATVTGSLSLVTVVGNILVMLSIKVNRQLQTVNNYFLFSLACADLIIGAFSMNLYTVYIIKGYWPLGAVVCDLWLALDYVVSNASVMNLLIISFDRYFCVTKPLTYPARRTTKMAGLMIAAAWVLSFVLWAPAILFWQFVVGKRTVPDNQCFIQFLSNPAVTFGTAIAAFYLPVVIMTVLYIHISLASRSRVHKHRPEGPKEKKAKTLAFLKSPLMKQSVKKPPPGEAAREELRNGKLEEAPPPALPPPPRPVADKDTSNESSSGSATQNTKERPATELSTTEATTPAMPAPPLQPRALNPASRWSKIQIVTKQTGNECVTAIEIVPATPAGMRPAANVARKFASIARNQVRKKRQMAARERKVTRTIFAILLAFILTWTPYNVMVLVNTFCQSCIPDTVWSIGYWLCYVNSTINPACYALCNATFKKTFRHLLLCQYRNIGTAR

Sequence of Kappa-type opioid receptor (Homo sapiens) (P41145 whole entry): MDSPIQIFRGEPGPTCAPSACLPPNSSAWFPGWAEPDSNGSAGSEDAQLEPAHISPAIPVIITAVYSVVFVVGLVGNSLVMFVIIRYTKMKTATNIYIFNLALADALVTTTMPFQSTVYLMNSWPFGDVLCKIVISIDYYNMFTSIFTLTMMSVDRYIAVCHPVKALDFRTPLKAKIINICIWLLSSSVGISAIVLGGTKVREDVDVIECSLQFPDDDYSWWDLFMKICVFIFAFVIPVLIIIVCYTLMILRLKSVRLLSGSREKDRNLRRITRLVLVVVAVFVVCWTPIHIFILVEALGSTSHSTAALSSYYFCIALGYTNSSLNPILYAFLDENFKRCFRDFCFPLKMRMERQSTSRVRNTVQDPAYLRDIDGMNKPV
Sequence of Sodium-dependent serotonin transporter (Homo sapiens) (P31645 whole entry, looked up): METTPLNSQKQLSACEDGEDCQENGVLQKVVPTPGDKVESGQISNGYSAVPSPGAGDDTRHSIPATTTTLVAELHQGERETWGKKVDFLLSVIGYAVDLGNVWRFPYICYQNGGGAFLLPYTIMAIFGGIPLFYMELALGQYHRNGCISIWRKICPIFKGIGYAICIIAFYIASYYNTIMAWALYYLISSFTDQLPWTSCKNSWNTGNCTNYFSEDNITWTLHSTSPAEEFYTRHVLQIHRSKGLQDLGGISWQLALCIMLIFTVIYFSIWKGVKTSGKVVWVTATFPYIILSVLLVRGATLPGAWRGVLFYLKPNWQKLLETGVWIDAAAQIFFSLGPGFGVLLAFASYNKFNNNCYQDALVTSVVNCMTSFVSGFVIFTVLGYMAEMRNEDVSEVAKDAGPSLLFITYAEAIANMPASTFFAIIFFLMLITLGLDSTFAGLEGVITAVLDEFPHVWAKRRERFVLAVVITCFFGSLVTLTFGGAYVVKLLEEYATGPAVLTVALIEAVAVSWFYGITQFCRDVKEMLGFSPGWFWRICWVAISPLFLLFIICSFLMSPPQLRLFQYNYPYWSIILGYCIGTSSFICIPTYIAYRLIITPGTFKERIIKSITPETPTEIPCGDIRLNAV
Sequence of Mu-type opioid receptor (Homo sapiens) (P35372 whole entry): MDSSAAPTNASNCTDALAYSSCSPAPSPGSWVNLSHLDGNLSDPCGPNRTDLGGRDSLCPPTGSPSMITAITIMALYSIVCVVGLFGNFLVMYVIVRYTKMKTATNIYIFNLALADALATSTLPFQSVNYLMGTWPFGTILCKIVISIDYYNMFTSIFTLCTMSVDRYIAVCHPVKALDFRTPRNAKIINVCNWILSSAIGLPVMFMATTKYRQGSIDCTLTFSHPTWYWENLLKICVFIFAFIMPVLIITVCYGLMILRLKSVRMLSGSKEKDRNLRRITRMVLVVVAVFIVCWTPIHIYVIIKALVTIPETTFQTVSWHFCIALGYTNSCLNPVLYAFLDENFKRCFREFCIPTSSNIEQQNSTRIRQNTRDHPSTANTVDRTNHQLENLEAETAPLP
Sequence of 5-hydroxytryptamine receptor 3A (Homo sapiens) (P46098 whole entry): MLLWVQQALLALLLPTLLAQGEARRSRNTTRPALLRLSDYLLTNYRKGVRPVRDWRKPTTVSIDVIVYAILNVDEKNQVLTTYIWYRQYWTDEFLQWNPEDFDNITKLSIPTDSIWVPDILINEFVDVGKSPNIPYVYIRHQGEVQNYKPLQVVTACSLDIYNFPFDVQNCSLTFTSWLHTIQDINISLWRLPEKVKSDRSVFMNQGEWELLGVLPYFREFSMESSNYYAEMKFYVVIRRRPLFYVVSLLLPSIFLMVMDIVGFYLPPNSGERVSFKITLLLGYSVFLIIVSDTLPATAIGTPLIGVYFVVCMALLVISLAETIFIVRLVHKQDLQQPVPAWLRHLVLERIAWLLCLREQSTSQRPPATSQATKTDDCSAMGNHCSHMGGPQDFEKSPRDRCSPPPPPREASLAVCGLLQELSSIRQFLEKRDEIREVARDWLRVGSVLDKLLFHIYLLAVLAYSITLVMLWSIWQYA
Sequence of Endothelin-1 receptor (Homo sapiens) (P25101 whole entry): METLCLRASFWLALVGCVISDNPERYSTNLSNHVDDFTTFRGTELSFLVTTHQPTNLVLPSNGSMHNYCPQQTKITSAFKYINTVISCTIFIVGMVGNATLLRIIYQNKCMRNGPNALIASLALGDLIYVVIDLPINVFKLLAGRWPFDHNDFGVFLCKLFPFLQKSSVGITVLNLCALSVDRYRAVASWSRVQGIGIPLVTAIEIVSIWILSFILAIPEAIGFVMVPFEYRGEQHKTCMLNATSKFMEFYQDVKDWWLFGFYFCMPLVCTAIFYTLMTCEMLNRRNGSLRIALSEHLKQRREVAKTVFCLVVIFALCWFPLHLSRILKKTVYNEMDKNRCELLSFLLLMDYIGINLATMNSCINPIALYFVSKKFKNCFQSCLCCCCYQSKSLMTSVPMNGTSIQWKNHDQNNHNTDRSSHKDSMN
Sequence of Histamine H1 receptor (Homo sapiens) (P35367 whole entry): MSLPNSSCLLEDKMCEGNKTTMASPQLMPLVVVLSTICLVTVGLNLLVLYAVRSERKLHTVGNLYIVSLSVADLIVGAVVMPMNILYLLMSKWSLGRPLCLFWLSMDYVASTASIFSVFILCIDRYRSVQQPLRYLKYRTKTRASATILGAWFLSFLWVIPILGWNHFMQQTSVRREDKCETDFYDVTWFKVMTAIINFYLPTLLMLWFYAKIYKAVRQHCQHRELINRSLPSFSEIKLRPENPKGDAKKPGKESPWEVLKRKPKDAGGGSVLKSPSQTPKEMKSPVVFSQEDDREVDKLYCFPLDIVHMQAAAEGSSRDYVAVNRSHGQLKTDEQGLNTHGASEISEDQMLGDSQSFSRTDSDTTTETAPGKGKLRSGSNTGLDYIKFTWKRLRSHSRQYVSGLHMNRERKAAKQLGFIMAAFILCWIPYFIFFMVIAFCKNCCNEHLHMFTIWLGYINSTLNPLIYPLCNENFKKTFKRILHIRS
Sequence of Beta-2 adrenergic receptor (Homo sapiens) (P07550 whole entry, looked up): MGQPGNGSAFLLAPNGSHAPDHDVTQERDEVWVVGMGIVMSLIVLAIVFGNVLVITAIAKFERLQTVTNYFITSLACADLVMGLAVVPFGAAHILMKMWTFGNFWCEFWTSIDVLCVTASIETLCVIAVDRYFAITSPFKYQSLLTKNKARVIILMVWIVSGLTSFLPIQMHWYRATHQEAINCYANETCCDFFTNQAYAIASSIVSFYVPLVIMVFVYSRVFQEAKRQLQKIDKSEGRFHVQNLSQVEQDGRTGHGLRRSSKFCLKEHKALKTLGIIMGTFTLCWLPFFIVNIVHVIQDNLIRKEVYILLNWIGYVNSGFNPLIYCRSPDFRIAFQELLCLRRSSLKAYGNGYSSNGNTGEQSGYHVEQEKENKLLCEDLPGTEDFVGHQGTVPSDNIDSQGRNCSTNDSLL
Sequence of Muscarinic acetylcholine receptor M3 (Homo sapiens) (P20309 whole entry, looked up): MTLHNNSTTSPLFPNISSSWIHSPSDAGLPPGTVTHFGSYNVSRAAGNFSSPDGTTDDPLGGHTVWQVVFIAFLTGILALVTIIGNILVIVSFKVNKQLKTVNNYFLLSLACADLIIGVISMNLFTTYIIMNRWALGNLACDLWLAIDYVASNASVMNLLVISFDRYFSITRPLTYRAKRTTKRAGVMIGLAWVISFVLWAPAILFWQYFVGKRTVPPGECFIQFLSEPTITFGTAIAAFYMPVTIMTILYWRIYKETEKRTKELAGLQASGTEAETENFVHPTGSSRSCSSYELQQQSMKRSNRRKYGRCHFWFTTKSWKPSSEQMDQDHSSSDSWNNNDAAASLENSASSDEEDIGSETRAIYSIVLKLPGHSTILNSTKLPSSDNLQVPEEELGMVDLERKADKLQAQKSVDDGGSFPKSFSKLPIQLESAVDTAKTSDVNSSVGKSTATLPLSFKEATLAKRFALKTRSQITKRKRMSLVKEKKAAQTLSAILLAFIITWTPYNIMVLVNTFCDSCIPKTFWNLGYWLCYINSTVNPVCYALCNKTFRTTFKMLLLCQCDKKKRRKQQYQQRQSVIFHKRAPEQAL
Sequence of B2 bradykinin receptor (Homo sapiens) (P30411 whole entry): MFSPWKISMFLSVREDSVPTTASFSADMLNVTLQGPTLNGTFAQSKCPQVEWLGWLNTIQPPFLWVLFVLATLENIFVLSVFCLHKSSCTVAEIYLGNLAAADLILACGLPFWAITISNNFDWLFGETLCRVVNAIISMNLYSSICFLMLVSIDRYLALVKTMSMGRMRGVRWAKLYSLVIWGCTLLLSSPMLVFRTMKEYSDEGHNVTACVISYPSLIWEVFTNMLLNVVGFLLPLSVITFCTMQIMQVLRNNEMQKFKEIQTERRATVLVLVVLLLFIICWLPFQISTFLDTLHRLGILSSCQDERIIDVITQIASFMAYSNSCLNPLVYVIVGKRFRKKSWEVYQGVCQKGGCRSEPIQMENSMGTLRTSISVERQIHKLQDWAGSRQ

| SMILES | inhibition [1] [%] | inhibition [2] [%] | inhibition [3] [%] | inhibition [4] [%] | inhibition [5] [%] | inhibition [6] [%] | % Inhibition of Control Agonist Response (Mean n=2) [7] [%] | % of Control Agonist Response (Mean n=2) [7] [%] | inhibition [8] [%] | inhibition [9] [%] | inhibition [10] [%] | inhibition [11] [%] | inhibition [12] [%] | inhibition [13] [%] | inhibition [14] [%] | inhibition [15] [%] | inhibition [16] [%] | inhibition [17] [%] |
| --- | --- | --- | --- | --- | --- | --- | --- | --- | --- | --- | --- | --- | --- | --- | --- | --- | --- | --- |
| O=C(N1CCS(=O)(=O)CC1)N1C[C@H](c2ccc(OC(F)(F)F)cc2)C[C@H](c2nc(C3CC3)no2)C1 [BAY-386] | -9 | 6 | 0 | 0 | 3 | 2 | 4.5 | 20.6 | 11 | -2 | 3 | 11 | 3 | 12 | 0 | 9 |  |  |
| Cc1noc([C@H]2C[C@@H](c3ccc(C(F)(F)F)cc3)CN(C(=O)N3CCS(=O)(=O)C3)C2)n1 [BAY-448] |  |  |  |  |  |  |  |  |  |  |  |  |  |  |  |  | 12.8 | -0.58 |
